# In patent publication US20250032429A1, “2-FLUORODESCHLO[…] TREATMENT OF DEPRESSION, INCLUDING TREATMENT-RESISTANT DEPRESSION” (CLEARMIND MEDICINE INC., priority 2021, published 2025):
# Where a name gives a salt, the structure may show the parent alone.
# How the values were obtained:
# [1] = Dose-response of arylcyclohexamines: intensity of experience after nasal spray, Shulgin + rating; assay type: in vivo; details: for Ketamine effect / 2-DCK effect / 2-FDCK effect / OPCE effect: nasal spray, Shulgin + scale as 1-4; for dose-response curve (shape): administered in the same way, FIG. 1, FIG. 2; for dosage effective as lower threshold: initial experimentation, logarithmic dosing
# Experimental: For safety reasons, when exploring novel psychoactives—the logarithmic scale is adopted for initial dosing to get an idea of whether or not a compound is active and if so, at what dosage ranges.
# Following this initial experimentation with OPCE, 2-DCK, and 2-FDCK (Ketamine was later added to the study for reference) it was clear that dosages of 3 mg, 15 mg, and 30 mg, correspondingly, were effective as lower thresholds for further exploration. It was decided to multiply the lower threshold doses by 2, 3 & 4 to explore the effects of higher doses on the mind. Every several days a portion of one of the compounds was measured out on an Ohaus Scout balance scale and prepared for administration via nasal spray using a refillable nasal spray bottle.
# The goals were to score a “+” ranking for effect and keep an open mind to look out for any other noteworthy observations. The Shulgin “+” based rating system (SHULGIN, A. T., & SHULGIN, A. (1991). Pihkal: a chemical love story. Berkeley, CA, Transform Press, page 964) for psychedelic experiences was chosen for a yearlong exploration of these various arylcylohexamines. Although the target family of molecules and the type of experience were different from the rating systems' original design, the scale's simplicity yields itself particularly well to this kind of exploration for a few reasons: • (1) The experience rendered by novel psychedelics is often ineffable.
# It was therefore desirable to use the simple +, ++, +++, ++++ as 1, 2, 3, 4 to rate intensity of experience without seeking an objective measure for intensity.
# When the dosages are adjusted to units that make all dose/response curves fit on the same graph then running a spline through the data points gives us curves that resemble, qualitatively, the curves appearing in FIG. 2.
# [2] = test system: patients with major depressive disorders; details: cited from earlier work
# [3] = test system: C57BL/6N mice; test: Mouse forced swim test (FST), two-day paradigm; assay type: in vivo; details: i.p. in saline 30 minutes prior to FST; day 2, final 4 minutes of 6 minute session; vs vehicle
# Experimental: Male 10 week C57BL/6N mice (Taconic) are acclimated to a holding facility one week prior to testing. A two-day FST paradigm is employed, in which mice are exposed to a 10 minute test in absence of drug, and are tested the following day in presence of drug in a 6 minute test. 2-FDCK is administered intraperitoneally (i.p.) in saline vehicle 30 minutes prior to FST. All animals are drug naïve and not previously exposed to behavioral testing.
# Male C57BL6N/Tac mice 10 weeks of age are housed four mice per cage under a 12:12 h light/dark cycle and are allowed to acclimate for approximately one week prior to behavioral procedures. Food and water is provided ad libitum. All procedures followed the National Institutes of Health Guide for the Care and Use of Laboratory Animals.
# 2-FDCK is dissolved in a saline vehicle (0.9% sodium chloride). For the 2-FDCK dose response experiment, mice receive vehicle or varying doses of 2-FDCK i.p. 30 minutes prior to behavior testing.
# Mice are tested in a two day forced swim test (FST) procedure. […] On day 2, mice receive i.p. injections 30 minutes prior to being placed in a cylinder for a 6 minute session and immobility time is scored during the final 4 minutes.
# [4] = test system: N-methyl-D-aspartate (NMDA) receptor; details: S-enantiomer compared with ketamine; cited from earlier work
smiles,measurement,setting,value
CNC1(c2ccccc2Cl)CCCCC1=O (racemic) [Ketamine],Ketamine effect,[1]; dosage 28 (mg),1
same,Ketamine effect,[1]; dosage 31 (mg),1
same,Ketamine effect,[1]; dosage 32 (mg),1
same,Ketamine effect,[1]; dosage 55 (mg),2
same,Ketamine effect,[1]; dosage 58 (mg),2
same,Ketamine effect,[1]; dosage 59 (mg),2
same,Ketamine effect,[1]; dosage 62 (mg),2
same,Ketamine effect,[1]; dosage 89 (mg),3
same,Ketamine effect,[1]; dosage 90 (mg),4
same,Ketamine effect,[1]; dosage 92 (mg),4
same,Ketamine effect,[1]; dosage 114 (mg),4
same,Ketamine effect,[1]; dosage 120 (mg),4
same,Ketamine effect,[1]; dosage 122 (mg),4
same,onset of antidepressant effect,[2],"rapid antidepressant effect, acting within two hours"
CNC1(c2ccccc2)CCCCC1=O (centres unmarked) [2-DCK],dose-response curve (shape),[1],dose-response curves that start rising sharply at low doses
same,2-DCK effect,[1]; dosage 15 (mg),1
same,2-DCK effect,[1]; dosage 16 (mg),1
same,2-DCK effect,[1]; dosage 17 (mg),1
same,2-DCK effect,[1]; dosage 18 (mg),1
same,2-DCK effect,[1]; dosage 28 (mg),3
same,2-DCK effect,[1]; dosage 29 (mg),3
same,2-DCK effect,[1]; dosage 31 (mg),3
same,2-DCK effect,[1]; dosage 33 (mg),3
same,2-DCK effect,[1]; dosage 42 (mg),4
same,2-DCK effect,[1]; dosage 43 (mg),4
same,2-DCK effect,[1]; dosage 44 (mg),4
same,2-DCK effect,[1]; dosage 45 (mg),4
same,2-DCK effect,[1]; dosage 46 (mg),4
same,2-DCK effect,[1]; dosage 57 (mg),4
same,2-DCK effect,[1]; dosage 58 (mg),4
same,2-DCK effect,[1]; dosage 61 (mg),4
same,2-DCK effect,[1]; dosage 62 (mg),4
same,dosage effective as lower threshold,[1],15 mg
"CNC1(c2ccccc2F)CCCCC1=O (centres unmarked) [2-FDCK, 2-(2-fluorophenyl)-2-(methylamino)cyclohexan-1-one]",dose-response curve (shape),[1],flatter than the dose-response curve for Ketamine
same,2-FDCK effect,[1]; dosage 28 (mg),1
same,2-FDCK effect,[1]; dosage 29 (mg),1
same,2-FDCK effect,[1]; dosage 30 (mg),1
same,2-FDCK effect,[1]; dosage 31 (mg),1
same,2-FDCK effect,[1]; dosage 32 (mg),1
same,2-FDCK effect,[1]; dosage 33 (mg),1
same,2-FDCK effect,[1]; dosage 35 (mg),1
same,2-FDCK effect,[1]; dosage 55 (mg),2
same,2-FDCK effect,[1]; dosage 57 (mg),2
same,2-FDCK effect,[1]; dosage 58 (mg),2
same,2-FDCK effect,[1]; dosage 61 (mg),2
same,2-FDCK effect,[1]; dosage 62 (mg),2
same,2-FDCK effect,[1]; dosage 88 (mg),3
same,2-FDCK effect,[1]; dosage 90 (mg),3
same,2-FDCK effect,[1]; dosage 91 (mg),3
same,2-FDCK effect,[1]; dosage 114 (mg),4
same,2-FDCK effect,[1]; dosage 116 (mg),4
same,2-FDCK effect,[1]; dosage 122 (mg),4
same,2-FDCK effect,[1]; dosage 124 (mg),4
same,dose response curve (shape) compared to S-ketamine,"[1]; in treating patients with depression, specifically TRD",flatter dose response curve compared to S-ketamine
same,dosage effective as lower threshold,[1],30 mg
same,immobility time,[3],shorter immobility times relative to mice receiving vehicle alone
CCNC1(c2ccccc2)CCCCC1=O (centres unmarked) [OPCE],dose-response curve (shape),[1],dose-response curves that start rising sharply at low doses
same,OPCE effect,[1]; dosage 3 (mg),1
same,OPCE effect,[1]; dosage 4 (mg),1
same,OPCE effect,[1]; dosage 6 (mg),1
same,OPCE effect,[1]; dosage 9 (mg),2
same,OPCE effect,[1]; dosage 11 (mg),4
same,OPCE effect,[1]; dosage 12 (mg),4
same,dosage effective as lower threshold,[1],3 mg
"CN[C@]1(c2ccccc2Cl)CCCCC1=O [S-ketamine, (S)-2-(2-chlorophenyl)-2-(methylamino)cyclohexanone hydrochloride]",potency or affinity for the NMDA receptor,[4],higher potency or affinity for the NMDA reception
